Results from US4758312A, “Method for in situ corrosion detection using electrochemically active compounds” (Nalco Chemical Company, priority 1987, dated 1988).

Tests used:
[1] = Commercial tetrazolium compounds, detection of iron corrosion (Example 4); details: 0.1 percent solution, one percent sodium chloride
[2] = Water solubility of reduced form (formazan); type: physicochemical; details: formazan of the synthesized tetrazolium compound
Source text: Because the reduced forms of the commercially available tetrazolium salts tested in Example 4 are insoluble, they would present a measurement problem when used in an actual corrosion detection test. The reduced form (the formazan) would precipitate at the corrosion site and be difficult to detect quantitatively in the water sample taken far from the corrosion site. Introduction of a functional group to give water solubility to the reduced form was done to eliminate this problem. Examples of such functional groups are carboxy (COOH), hydroxy (OH), sulfonic (OSO3 H), amino (NH2), etc. These could be introduced on any of the three "R" groups in the generalized tetrazolium structure given below by choosing the appropriate organic compound to be used in the synthesis. [drawing 4]

[3] = Corrosion detection under typical cooling water conditions in recirculation tank (Example 7); details: continuous 4 ppm feed from day 4, Inhibitor A

Water solubility of formazan formed [2]	SMILES	Time to Color [1] [min]	Formazan level, stabilized [3]
–	c1ccc(-c2nn(-c3ccccc3)[n+](-c3ccc(-c4ccc(-[n+]5nc(-c6ccccc6)nn5-c5ccccc5)cc4)cc3)n2)cc1 [Compound 8 (Table 6), 2,2',5,5'-tetraphenyl-3,3'(p-diphenylene)ditetrazolium chloride]	35	–
water soluble	O=C(O)c1ccc(-n2nc(-c3ccccc3)n[n+]2-c2ccccc2)cc1 [tetrazolium compound, 2-(p-carboxyphenyl)-3,5-diphenyltetrazolium bromide]	–	2-3 ppb
